Assay results: patent US20160220710A1, “COMPOSITIONS AND METHODS FOR DELIVERING PHARMACEUTICAL AGENTS” (THE REGENTS OF THE UNIVERSITY OF MICHIGAN, priority 2015, published 2016)

What was measured:
IL-1RA = IL-1RA ELISA; type: cell-based, murine; details: RAW 264.7 cells, 24 h
Procedure: The murine macrophage cell line RAW 264.7 was purchased from ATCC (Manassas, Va.) and maintained in DMEM (Life Technologies, Carlsbad, Calif.) supplemented with 10% FBS. Soluble CFZ or isolated CLDIs were added at various concentrations in DMEM with 5% FBS to 6-well plates containing 4×10^5 cells/well and incubated (24 h at 37° C. and 5% CO2). Culture supernatants were harvested at 24 h, centrifuged (1500×g for 5 min), and stored (−20° C.) in frozen aliquots prior to analysis. For experiments involving TLR stimulation, cells were washed twice with pre-warmed DPBS to remove extracellular, non-phagocytosed CLDIs or CFZ, and then the cells were serum-starved for 18 h in DMEM. Supernatants were collected from unstimulated cells and cells stimulated with 200 ng/ml Pam3 or 1 μg/ml LPS in DMEM.
The media of cells with or without 6 h TLR stimulation by Pam3 or LPS was harvested, and TNFα and IL-1RA levels were measured by ELISA (Duoset, R&D Systems, Minneapolis, Minn.) in duplicate wells according to the manufacturer's instructions. The cytokine concentrations were expressed as picogram per milligram of cell lysate. Experiments were repeated three times and values are expressed as the mean±SD.

[1] = Measurement of CFZ in tissues; type: in vivo, mice
Procedure: Mice (4 week old, male C57Bl6) were purchased from the Jackson Laboratory (Bar Harbor, Me.) and acclimatized for 1 week in a specific-pathogen-free animal facility. Animal care was provided by the University of Michigan's Unit for Laboratory Animal Medicine (ULAM), and the experimental protocol was approved by the Committee on Use and Care of Animals. Clofazimine (CFZ) (C8895; Sigma-Aldrich, St. Louis, Mo.) was dissolved in sesame oil (Roland, China, or Shirakiku, Japan) to achieve a concentration of 3 mg/ml, which was mixed with Powdered Lab Diet 5001 (PMI International, Inc., St. Louis, Mo.) to produce a 0.03% drug to powdered feed (Baik et al., 2013, supra). […]
CFZ mass was measured as previously reported (Baik et al., 2012, supra; Venkatesan, et al., Arzneim. Forsch. 2007, 57, 472-474). […] CFZ mass was spectrophotometrically determined in methanol (λ=490 nm) and the concentration was calculated using a standard curve generated by spiking extracted tissue of the control (vehicle-only treated) mice tissue with known amounts of drug. The tissue-to-fat partition ratios were computed based on mass of drug in the various tissues relative to mass of drug in total body fat (units: dimensionless; calculated as [mg CFZ/g tissue]/[mg CFZ/g fat]). […] CFZ mass was measured in relation to the measured weight of the tissue or plasma volume.

Compound: CC(C)/N=c1\cc2n(-c3ccc(Cl)cc3)c3ccccc3nc-2cc1Nc1ccc(Cl)cc1 [CFZ, 3-(p-chloroanilino)-10-(p-chlorophenyl)-2, 10-dihydro-2-isopropyliminophenazine]
- IL-1RA secretion (IL-1RA): did not affect IL-1RA secretion
- CFZ mass retained in spleen ([1]; after the eight week washout period): exceeded its combined mass retained in the other organs
- Kp ([1]; male, C57Bl6, mouse, adipose tissue / serum, 10 mg/kg per day, starting at three weeks of oral administration, read-out: CFZ concentration in adipose tissue relative to serum): > 10000
